Measurements as given in PubChem BioAssay (NCI).
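A five-concentration, 48-hour dose response in 96-well plates underlies each endpoint, interpolated linearly between surrounding concentrations. Abbreviation: GI50, concentration required for 50% inhibition of growth. TGI denotes the concentration required for complete inhibition of growth.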

Experiments:
Experiment in all cases: NCI tumour cell line growth inhibition, 48 h
HS 578T breast = tested on: HS 578T breast
OVCAR-5 ovarian = tested on: OVCAR-5 ovarian
SK-MEL-28 melanoma = tested on: SK-MEL-28 melanoma
OVCAR-3 ovarian = tested on: OVCAR-3 ovarian
M14 melanoma = tested on: M14 melanoma
CCRF-CEM leukemia = tested on: CCRF-CEM leukemia
MDA-MB-231 breast = tested on: MDA-MB-231 breast
A549 NSCLC = tested on: A549 NSCLC
PC-3 prostate = tested on: PC-3 prostate
UO-31 renal = tested on: UO-31 renal
SF-268 CNS = tested on: SF-268 CNS
SF-295 CNS = tested on: SF-295 CNS
SF-539 CNS = tested on: SF-539 CNS
IGROV1 ovarian = tested on: IGROV1 ovarian
CAKI-1 renal = tested on: CAKI-1 renal
LOX IMVI melanoma = tested on: LOX IMVI melanoma
SK-MEL-2 melanoma = tested on: SK-MEL-2 melanoma
MALME-3M melanoma = tested on: MALME-3M melanoma
EKVX NSCLC = tested on: EKVX NSCLC
KM12 colon = tested on: KM12 colon
DU-145 prostate = tested on: DU-145 prostate
OVCAR-8 ovarian = tested on: OVCAR-8 ovarian
NCI-H460 lung = tested on: NCI-H460 lung
RPMI-8226 leukemia = tested on: RPMI-8226 leukemia
SW-620 colon = tested on: SW-620 colon
MCF7 breast = tested on: MCF7 breast
NCI-H23 lung = tested on: NCI-H23 lung
SK-MEL-5 melanoma = tested on: SK-MEL-5 melanoma
786-0 renal = tested on: 786-0 renal
HOP-62 NSCLC = tested on: HOP-62 NSCLC
T-47D breast = tested on: T-47D breast
OVCAR-4 ovarian = tested on: OVCAR-4 ovarian
RXF 393 renal = tested on: RXF 393 renal
NCI/ADR-RES ovarian = tested on: NCI/ADR-RES ovarian
HCT-116 colon = tested on: HCT-116 colon
HCT-15 colon = tested on: HCT-15 colon
SNB-19 CNS = tested on: SNB-19 CNS
HT29 colon = tested on: HT29 colon
HCC-2998 colon = tested on: HCC-2998 colon
ACHN renal = tested on: ACHN renal
BT-549 breast = tested on: BT-549 breast
K-562 leukemia = tested on: K-562 leukemia
TK-10 renal = tested on: TK-10 renal
UACC-62 melanoma = tested on: UACC-62 melanoma
A498 renal = tested on: A498 renal
COLO 205 colon = tested on: COLO 205 colon
HL-60(TB) leukemia = tested on: HL-60(TB) leukemia
UACC-257 melanoma = tested on: UACC-257 melanoma
MDA-MB-435 = tested on: MDA-MB-435
SNB-75 CNS = tested on: SNB-75 CNS
NCI-H522 lung = tested on: NCI-H522 lung
U251 CNS = tested on: U251 CNS
SN12C renal = tested on: SN12C renal
HOP-92 NSCLC = tested on: HOP-92 NSCLC
NCI-H226 lung = tested on: NCI-H226 lung
SK-OV-3 ovarian = tested on: SK-OV-3 ovarian
MOLT-4 leukemia = tested on: MOLT-4 leukemia

Compound: COC(=O)c1ccc([C@H]2c3[nH]c4ccccc4c3C[C@H](C(=O)OC)N2C(=O)CCl)cc1
- GI50 (HS 578T breast): 1480 nM
- TGI (HS 578T breast): 5980 nM
- GI50 (OVCAR-5 ovarian): 1440 nM
- TGI (OVCAR-5 ovarian): 3650 nM
- GI50 (SK-MEL-28 melanoma): 2350 nM
- TGI (SK-MEL-28 melanoma): 6920 nM
- GI50 (OVCAR-3 ovarian): 672 nM
- TGI (OVCAR-3 ovarian): 2120 nM
- GI50 (M14 melanoma): 1940 nM
- TGI (M14 melanoma): 5110 nM
- GI50 (CCRF-CEM leukemia): 22.3 nM
- TGI (CCRF-CEM leukemia): 83.9 nM
- GI50 (MDA-MB-231 breast): 109 nM
- TGI (MDA-MB-231 breast): 551 nM
- GI50 (A549 NSCLC): 1630 nM
- TGI (A549 NSCLC): 10500 nM
- GI50 (PC-3 prostate): 845 nM
- TGI (PC-3 prostate): 4300 nM
- GI50 (UO-31 renal): 28.3 nM
- TGI (UO-31 renal): 108 nM
- GI50 (SF-268 CNS): 1900 nM
- TGI (SF-268 CNS): 4610 nM
- GI50 (SF-295 CNS): 80.4 nM
- TGI (SF-295 CNS): 216 nM
- GI50 (SF-539 CNS): 89.9 nM
- TGI (SF-539 CNS): 226 nM
- GI50 (IGROV1 ovarian): 85.8 nM
- TGI (IGROV1 ovarian): 277 nM
- GI50 (CAKI-1 renal): 262 nM
- TGI (CAKI-1 renal): 2510 nM
- GI50 (LOX IMVI melanoma): < 10 nM
- TGI (LOX IMVI melanoma): < 10 nM
- GI50 (SK-MEL-2 melanoma): 2030 nM
- TGI (SK-MEL-2 melanoma): 4890 nM
- GI50 (MALME-3M melanoma): 157 nM
- TGI (MALME-3M melanoma): 438 nM
- GI50 (EKVX NSCLC): 820 nM
- TGI (EKVX NSCLC): 3400 nM
- GI50 (KM12 colon): 1030 nM
- TGI (KM12 colon): 4390 nM
- GI50 (DU-145 prostate): 2230 nM
- TGI (DU-145 prostate): 12300 nM
- GI50 (OVCAR-8 ovarian): 1360 nM
- TGI (OVCAR-8 ovarian): 7930 nM
- GI50 (NCI-H460 lung): 1630 nM
- TGI (NCI-H460 lung): 3590 nM
- GI50 (RPMI-8226 leukemia): 40.5 nM
- TGI (RPMI-8226 leukemia): 386 nM
- GI50 (SW-620 colon): 1490 nM
- TGI (SW-620 colon): 3340 nM
- GI50 (MCF7 breast): 1750 nM
- TGI (MCF7 breast): 4950 nM
- GI50 (NCI-H23 lung): 54.9 nM
- TGI (NCI-H23 lung): 375 nM
- GI50 (SK-MEL-5 melanoma): 2300 nM
- TGI (SK-MEL-5 melanoma): 5930 nM
- GI50 (786-0 renal): < 10 nM
- TGI (786-0 renal): < 16.9 nM
- GI50 (HOP-62 NSCLC): 997 nM
- TGI (HOP-62 NSCLC): 4440 nM
- GI50 (T-47D breast): 2230 nM
- TGI (T-47D breast): 13300 nM
- GI50 (OVCAR-4 ovarian): 2500 nM
- TGI (OVCAR-4 ovarian): 9870 nM
- GI50 (RXF 393 renal): 74 nM
- TGI (RXF 393 renal): 723 nM
- GI50 (NCI/ADR-RES ovarian): 74.4 nM
- TGI (NCI/ADR-RES ovarian): 333 nM
- GI50 (HCT-116 colon): 1470 nM
- TGI (HCT-116 colon): 2980 nM
- GI50 (HCT-15 colon): 1040 nM
- TGI (HCT-15 colon): 2650 nM
- GI50 (SNB-19 CNS): 4390 nM
- TGI (SNB-19 CNS): 16000 nM
- GI50 (HT29 colon): 298 nM
- TGI (HT29 colon): 1110 nM
- GI50 (HCC-2998 colon): 1750 nM
- TGI (HCC-2998 colon): 3380 nM
- GI50 (ACHN renal): 234 nM
- TGI (ACHN renal): 2170 nM
- GI50 (BT-549 breast): 1230 nM
- TGI (BT-549 breast): 2570 nM
- GI50 (K-562 leukemia): 1970 nM
- TGI (K-562 leukemia): > 28000 nM
- GI50 (TK-10 renal): 2320 nM
- TGI (TK-10 renal): 7660 nM
- GI50 (UACC-62 melanoma): 752 nM
- TGI (UACC-62 melanoma): 2210 nM
- GI50 (A498 renal): 447 nM
- TGI (A498 renal): 888 nM
- GI50 (COLO 205 colon): 2330 nM
- TGI (COLO 205 colon): 6140 nM
- GI50 (HL-60(TB) leukemia): 113 nM
- TGI (HL-60(TB) leukemia): 301 nM
- GI50 (UACC-257 melanoma): 3870 nM
- TGI (UACC-257 melanoma): 14500 nM
- GI50 (MDA-MB-435): 2740 nM
- TGI (MDA-MB-435): 11100 nM
- GI50 (SNB-75 CNS): 334 nM
- TGI (SNB-75 CNS): 843 nM
- GI50 (NCI-H522 lung): 19.7 nM
- TGI (NCI-H522 lung): 43.5 nM
- GI50 (U251 CNS): 641 nM
- TGI (U251 CNS): 1990 nM
- GI50 (SN12C renal): 1260 nM
- TGI (SN12C renal): 2890 nM
- GI50 (HOP-92 NSCLC): 23 nM
- TGI (HOP-92 NSCLC): 63 nM
- GI50 (NCI-H226 lung): 2210 nM
- TGI (NCI-H226 lung): 5940 nM
- GI50 (SK-OV-3 ovarian): 1720 nM
- TGI (SK-OV-3 ovarian): 3590 nM
- GI50 (MOLT-4 leukemia): 268 nM
- TGI (MOLT-4 leukemia): 857 nM
